Key:
human 17βHSD type 3 = target: T1, human 17βHSD type 3 (Homo sapiens, UniProt P37058); experiment: Measurement of enzyme activity of human 17βHSD type 3; format: biochemical; conditions: enzyme source: supernatant of transformed 293 cells; read-out: Type3 IC50
T1 construct: A full-length cDNA encoding human 17βHSD type 3; made in house; host or cells: human fetus kidney-derived 293 cells (transient, 24 h); supernatant of disrupted cells
T1 sequence (P37058 1-310): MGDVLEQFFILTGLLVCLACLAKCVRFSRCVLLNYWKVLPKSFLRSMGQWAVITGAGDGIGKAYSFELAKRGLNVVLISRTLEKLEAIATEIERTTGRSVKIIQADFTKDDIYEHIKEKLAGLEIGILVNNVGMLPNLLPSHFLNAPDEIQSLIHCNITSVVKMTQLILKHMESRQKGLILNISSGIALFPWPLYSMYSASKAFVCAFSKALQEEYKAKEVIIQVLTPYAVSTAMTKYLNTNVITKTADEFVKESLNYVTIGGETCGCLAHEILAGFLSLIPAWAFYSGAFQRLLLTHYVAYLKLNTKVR
Source text: (§1) An excellent selective inhibitory activity against human 17βHSD type 5 of the compounds of the present invention was confirmed by the test method described below. In this connection, the test may be carried out by referring to the details of test procedure described in Maniatis, T. et al., Molecular Cloning—A Laboratory Manual Cold Spring Harbor Laboratory, NY (1982) and the like. In addition, genes encoding human 17βHSD type5 and type3 described in Sections 1 and 2 below, and human 17βHSD type 5 and type 3 may be obtained by the method described in Molecular Endocrinology, 1997, 11(13), 1971-1984.
2. Isolation of Gene Encoding Human 17βHSD Type 3 and Enzyme Purification
A full-length cDNA encoding human 17βHSD type 3 used in the pharmacological test of the present invention was obtained by the PCR method using a cDNA derived from human testis as a template. The nucleotide sequence of the obtained cDNA was analyzed by the dideoxyterminator method, and the clone matched with the known human 17βHSD type 3 sequence (GenBank accession No. BCO34281) was selected. Subsequently, human fetus kidney-derived cell line, 293 cells, were transformed with a plasmid containing the cDNA, and the cells were collected 24 hours later. The collected cells were then disrupted in a phosphate buffer solution containing 5% glycerol (500 μL per 100 mm-dish of a phosphate buffer solution (pH 7.4, 200 mM) containing 5% glycerol) and centrifuged (16000 rpm, 5 min, 4° C.), and the supernatant was used as an enzyme source.
(§2) 3. Measurement of Enzyme Activities of Human 17βHSD Type 5 and Type 3
(§3) Enzyme activity was measured referring to Trevor M. Penning, et al., Biochem. J., 351, 67-77, (2000). Specifically, using a 100 mM potassium phosphate buffer (pH 6.0), (1) the enzyme purified in Section 1 at a final concentration of 10 μg/mL, (2) androstenedione at a final concentration of 300 nM, (3) NADPH at a final concentration of 200 μM, and (4) a test substance, were mixed to react at room temperature for 2 hours, and then the amount of testosterone produced was measured using DELFIA (registered trademark) Testosterone Reagents R050-201 (manufactured by PerkinElmer). The measurement was performed in accordance with the attached instructions. The amount of reduction of testosterone production in the presence of the compound was obtained as a relative value with respect to the amount of testosterone in the absence of the enzyme set at 0% and the amount of testosterone produced in the absence of the compound set at 100%. Then, IC50 values were calculated by the Logistic regression method.

[1] = target: T2, human 17βHSD type 5-expressing LNCaP cells (Homo sapiens, UniProt P42330); experiment: Cell growth inhibitory activity using LNCaP cells expressing human 17βHSD type 5 (androstenedione-stimulated, CellTiter-Glo); format: cell-based; conditions: androstenedione 10 nM, culturing for 7 days; read-out: LNCaP-17β5 IC50
T2 sequence (P42330 1-323): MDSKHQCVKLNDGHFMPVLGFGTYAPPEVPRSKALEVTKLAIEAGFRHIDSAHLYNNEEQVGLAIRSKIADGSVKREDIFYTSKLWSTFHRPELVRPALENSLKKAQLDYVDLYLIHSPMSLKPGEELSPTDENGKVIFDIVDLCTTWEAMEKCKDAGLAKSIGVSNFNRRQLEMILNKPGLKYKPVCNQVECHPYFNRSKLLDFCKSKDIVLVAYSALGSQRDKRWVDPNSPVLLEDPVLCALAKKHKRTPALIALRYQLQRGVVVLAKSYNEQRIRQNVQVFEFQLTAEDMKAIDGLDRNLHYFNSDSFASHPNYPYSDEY
Method: Subsequently, LNCaP cells expressing human 17βHSD type 5 were constructed from a human prostate cancer-derived cell line, LNCaP cells, and a cell growth inhibitory activity of the compound of the present invention was evaluated.
4. Construction of LNCaP Cells Expressing Human 17βHSD Type 5
A full-length cDNA encoding human 17βHSD type 5 used in the pharmacological test of the present invention was obtained by the PCR method using a cDNA derived from a human lung cancer-derived cell line, A549 cells, as a template. The nucleotide sequence of the obtained cDNA was analyzed by the dideoxyterminator method, and the clone matched with the known human 17βHSD type 5 sequence (GenBank accession No. NM_003739) was selected. The human prostate cancer-derived cell line LNCaP cells were transformed with a plasmid containing the cDNA and the cell line showing stable expression was obtained.
5. Measurement of Cell Growth Capability Using LNCaP Cells Expressing Human 17βHSD Type 5
9000 cells/well of the transformed cells obtained in Section 4 above were seeded in a 96-well plate and cultured overnight. Then, androstenedione, in conjunction with a test compound, was added thereto at a final concentration of 10 nM, followed by culturing for 7 days. After the culturing, number of the cells was counted using a CellTiter-Glo (registered trademark) Luminescent Cell Viability Assay (Promega). The CellTiter-Glo (registered trademark) Luminescent Cell Viability Assay is a reagent that measures the number of the cells by monitoring an intracellular ATP level from the luminescence intensity by luciferase. The experimental manipulation was carried out in accordance with the attached instructions. The cell growth inhibitory activity in the presence of a test compound was calculated as a relative value with respect to the number of the cells in the absence of androstenedione set at proliferation of 0%, and the number of the cells in the presence of androstenedione and in the absence of the test compound set at proliferation of 100%. Then, IC50 values were calculated by the Logistic regression method.

human 17βHSD type 5 = target: T3, human 17βHSD type 5 (Homo sapiens, UniProt P42330); experiment: Measurement of enzyme activity of human 17βHSD type 5 (testosterone production from androstenedione); format: biochemical; conditions: purified enzyme 10 μg/mL, androstenedione 300 nM, NADPH 200 μM, pH 6.0, room temperature 2 hours; read-out: Type5 IC50
T3 construct: A full-length cDNA encoding human 17βHSD type 5; GST (cleaved yes); made in house; host or cells: Escherichia coli BL21
T3 sequence (P42330 1-323): T2 sequence (P42330 1-323)
Source text: as §1
1. Isolation of Gene Encoding Human 17βHSD Type 5 and Enzyme Purification
A full-length cDNA encoding human 17βHSD type 5 used in the pharmacological test of the present invention was obtained by the PCR method using a cDNA derived from a human lung cancer-derived cell line, A549 cells as a template. The nucleotide sequence of the obtained cDNA was analyzed by the dideoxyterminator method, and the clone matched with the known human 17βHSD type 5 sequence (GenBank accession No. NM_003739) was selected. Escherichia coli BL21 was transformed with a plasmid containing the cDNA and cultured on a large scale. The proteins were purified by using GSTrapFF column (manufactured by Amersham) and PreScissionProtease (manufactured by Amersham). The purification method was carried out in accordance with the instructions attached to the GSTrapFF column.
as §2, §3

5α-reductase = conditions: patients with BPH, after administration of finasteride; cited from earlier work

IC50 (human 17βHSD type 3)	GI50 [1]	IC50 (human 17βHSD type 5)	Compound	concentration of DHT in the prostate relative to the concentration before the administration (5α-reductase)	increase of the concentration of testosterone in the prostate (5α-reductase)
> 10000 nM	6680 nM	200 nM	N#Cc1ccc2c(ccn2-c2cccc(C(=O)O)c2)c1 [Example 1, 3-(5-cyano-1H-indol-1-yl) benzoic acid]		
6400 nM	66 nM	180 nM	O=C(O)c1cccc(-n2c(-c3ccccc3)nc3cc(C(F)(F)F)ccc32)c1 [Example 17]		
2500 nM	92 nM	180 nM	COCCc1cn(-c2cccc(C(=O)O)c2)c2ccc(C(F)(F)F)cc12 [Example 47, 3-[3-(2-methoxyethyl)-5-(trifluoromethyl)-1H-indol-1-yl]benzoic acid]		
4700 nM	102 nM	110 nM	Cc1nc2cc(C(F)(F)F)ccc2n1-c1cccc(C(=O)O)c1 [Example 21]		
			CC(C)(C)NC(=O)[C@H]1CC[C@H]2[C@@H]3CC[C@H]4NC(=O)C=C[C@]4(C)[C@H]3CC[C@]12C [finasteride]	about 20%	4 fold
	34 nM	40 nM	O=C(O)c1cccc(-n2c(COc3ccccc3)nc3cc(C(F)(F)F)ccc32)c1 [Example 44]		
	46 nM	120 nM	COc1nc2cc(C(F)(F)F)ccc2n1-c1cccc(C(=O)O)c1 [Example 32]		
7300 nM	101 nM	120 nM	O=C(O)c1cccc(-n2cnc3cc(C(F)(F)F)ccc32)c1 [Example 20]		
1800 nM	46 nM	50 nM	O=C(O)c1cccc(-n2cc(-c3ccccc3)c3cc(C(F)(F)F)ccc32)c1 [Example 6]		
> 10000 nM	45 nM	96 nM	O=C(O)c1cccc(-n2c(Cc3ccccc3)nc3cc(C(F)(F)F)ccc32)c1 [Example 38]		
3200 nM	141 nM	70 nM	O=C(O)c1cccc(-n2c(C(F)(F)F)nc3cc(C(F)(F)F)ccc32)c1 [Example 54, 3-[2,5-bis(trifluoromethyl)-1H-benzimidazol-1-yl]benzoic acid]		
